From patent US20250230124A1, “SMALL MOLECULE INHIBITORS OF ID PROTEINS” (MEMORIAL SLOAN-KETTERING CANCER CENTER, priority 2022, published 2025)

Tests used:
DU145 cells = experiment: Prostate cancer cell morphology, growth and death; type: cell-based; settings: for outcome of treatment of DU145 cells: after six days; for effect on DU145 cells (health, proliferation): after three days
Description: Prostate cancer cell lines DU145 and PC3 (in 10% BCS) will be cultured in Ham's F12 (Gibco, Carlsbad, Calif.) medium containing 10% BCS (Hyclone, Logan, Utah) and appropriate antibiotics (pen/strep, fungizaone, and gentamycin (Invitrogen Inc., Carlsbad, Calif.). All cells will be cultured at 37° C. in a fully humidified atmosphere containing 5% CO2.
At 50% confluence, the cells will be treated with either 100 μM DMSO, AGX51, AGX-A, or a compound of the present technology. The cell morphology and growth will be monitored daily for 1 week by microscopy for changes in morphology or cell death. Apoptosis will be determined by measuring caspase 3 and caspase 7 activities using the Caspase-Glo 3/7 Assay system from Promega (Madison, Wis.).

[1] = system: CD31-positive microvessels in Matrigel plugs; experiment: Anti-angiogenic activity in VEGF-165 and FGF-2 treated Matrigel plugs; type: in vivo, mouse; settings: for protection from new blood vessel formation: compared to vehicle control animals; for presence of endothelial cells in Matrigel plugs: mouse, in vivo
Description: VEGF-165 and FGF-2 treated Matrigel plugs will be implanted on Day 0 into C57BL/6 mice. Mice will be treated with either vehicle, AGX51, AGX-A, or a compound of the present technology. The AGX51, AGX-A, and compound of the present technology will be provided either in the plugs (25 μg/mg) or by daily ip treatment (30 or 100 mg/kg) for 10 days. Plugs will be harvested on Day 10, fixed and paraffin embedded. Three sections ([…] thickness) of each plug will be stained with an anti-CD31 antibody and counterstained with hematoxylin and eosin stain. CD31-positive microvessels will be counted for one entire cross-section per plug and the average micro-vessel density±SD vessels will be determined. Student's t-test will be used for statistical analysis.

LLC cancer cells = experiment: Metastatic activity in LLC mouse model; type: in vivo; settings: daily ip
Description: Thirty C57BL/6 mice will be implanted with 7.5×10^5 LLC cancer cells/animal. Seven days after implantation, 5M/5F per group will be treated daily ip for 25 days with dosing vehicle (DMSO), AGX51, AGX-A, or a compound of the present technology. Fourteen days after implantation, another group of 5M/5F animals will be treated daily ip for 18 days with 50 mg/kg of AGX51, another group of 5M/5F animals will be treated daily ip for 18 days with 50 mg/kg of AGX-A, and another group of 5M/5F animals will be treated daily ip for 18 days with a compound of the present technology. Tumors will be measured three times from Day 7 to 14. On Day 14, the tumors will be excised. The animals will be necropsied for the presence of lung metastases on day 32, 18 days post excision.

ID1 = target: T1, ID1 (Homo sapiens, UniProt P41134); experiment: Activity against ID1 in cells (Western Blot); type: cell-based
T1 construct: endogenous in cells
T1 sequence (P41134 1-155): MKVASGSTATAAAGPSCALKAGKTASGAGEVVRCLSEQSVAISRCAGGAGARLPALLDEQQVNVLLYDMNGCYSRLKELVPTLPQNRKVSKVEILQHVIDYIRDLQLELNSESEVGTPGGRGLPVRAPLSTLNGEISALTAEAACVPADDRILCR

cells = experiment: Cell killing / cell viability assay; type: cell-based
Description: Cell viability assays. Cell lines will be seeded in a 96 well plate (5000 cells per well). After overnight incubation, cells will be treated with a compound of the present technology and incubated for 24 hours then MTT reagent (5 mg/mL) will be added per well and the cells will be incubated for four hours. Following incubation, media will be aspirated and 200 μL DMSO will be added per well. Absorbance will then be measured at 570 nm using a plate reader (Synergy 2, BioTek). Cell growth profiles will be determined by seeding 38,000 cells in a 24-well plate, in triplicate for each time point, and counting the cells on days 1, 3 and 5 after seeding, using trypan blue exclusion of dead cells.

[2] = system: cholangiocarcinoma PDX RomeP_PHCH_X_0008a; experiment: Murine patient-derived xenograft model of cholangiocarcinoma, tumor volume; type: in vivo, mouse; settings: NSG mice, 50 or 100 mg/kg p.o. BIDx5 x 4 weeks
Source text: An animal model of cholangiocarcinoma predictive of anti-cholangiocarcinoma drug efficacy in humans, as described in Mattar, M. et al. Establishing and Maintaining an Extensive Library of Patient-Derived Xenograft Models. Front Oncol. 2018 Feb.
• Mice: NSG females, 6-8 weeks old • PDX: RomeP_PHCH_X_0008a, serially transplanted sc with matrigel • Treatment Groups (at least 5 animals/group): treatments started when tumors reached 100 mm^3 (“Day 0” for each animal), dosed via oral gavage • Group 1. Saline with 10% by weight 2-hydroxypropyl-β-cyclodextrin (“Vehicle”), p.o. twice daily for 5 days per week (“BIDx5”) for 4 weeks (“×4 weeks”) • Group 2. AGX-A 50 mg/kg in Vehicle, p.o. BIDx5×4 weeks • Group 3. AGX-A 100 mg/kg in Vehicle, p.o. BIDx5×4 weeks • Group 4. AGX-502 50 mg/kg in Vehicle, p.o. BIDx5×4 weeks • Group 5. AGX-502 100 mg/kg in Vehicle, p.o. BIDx5×4 weeks.
Tumor volumes, weights, and clinical signs were monitored a minimum of twice per week for each animal in each group throughout the study. Mice were sacrificed by CO2 asphyxiation once the tumor volume exceeded 2000 mm^3 or body weight loss was higher than 10%. Upon completion of the experiment, tumors were harvested and processed for immunoblotting and/or immunohistochemistry assays.

Structure (SMILES) | outcome of treatment of DU145 cells (DU145 cells) | effect on DU145 cells (health, proliferation) (DU145 cells) | protection from new blood vessel formation [1] | presence of endothelial cells in Matrigel plugs [1] | lung metastases (LLC cancer cells) | activity against ID1 in cells (ID1) | activity by Western Blot (ID1) | activity by cell killing (cells) | time to complete cell killing (cells) | IC50 (24 h) (cells; 24 h, initial testing) | anti-cancer efficacy (tumor volume) [2]
CCC(=O)N(CCC(c1ccc2c(c1)OCO2)c1ccccc1OC)Cc1ccccc1 (racemic) [AGX51, N-(3-(benzo[d][1,3]dioxol-5-yl)-3-(2-methoxyphenyl)propyl)-N-benzylpropionamide] | cell death | pronounced effect | significant protection | significantly decrease | profoundly diminish | – | – | – | – | – | –
COc1ccccc1C(CCNC(C)c1ccccc1)c1ccc(OC(C)C)cc1 (centres unmarked) [AGX-502] | – | – | – | – | – | significant activity | very active | very active | ≤ 8 h | significantly favorable | dose-dependent anti-cancer efficacy
COc1ccccc1C(CCNCc1ccccc1)c1ccc(OC(C)C)cc1 (centres unmarked) [AGX-A, N-benzyl-3-(4-isopropoxyphenyl)-3-(2-methoxyphenyl)propan-1-amine] | cell death | pronounced effect | significant protection | significantly decrease | profoundly diminish | – | – | – | ≤ 24 h | – | –
